Where two headings read alike, the source gives them in different places. Residues, ends and D or L forms follow the SMILES beside them.
Test system: Mortierella elongata AG77
Assay: Carbon source utilisation in Biolog 96-well plates, formazan formation after tetrazolium addition
Format: cell-based
Settings: for Metabolized: Metabolized = more formazan formation than a control containing no carbon source, observed visually at 2 h, 24 h, 148 h; for Carbon sources that Mortierella elongata AG77 can metabolize: summary of Table 3
Experimental: Two 300 mL volumes of growth medium comprising 1 g/L KH2PO4, 1 g/L MgSO4 7H2O, 0.1 g/L CaCl2, 0.02 g/L FeNaEDTA, 0.1 g/L NaCl, and either 1 g/L NH4NO3 or 20 g/L sucrose were prepared. Acidity was adjusted to 5.5 using NaOH and volumes of growth medium were autoclaved 30 min at 121° C. to sterilize. Aliquots of 200 μL of carbon-free medium or nitrogen-free medium were pipetted into each well of a set of 96-well plates previously prepared with lyophilized putative carbon or nitrogen sources (Biolog Inc., Hayward, Calif.). Inocula were prepared by perforating a culture of Mortierella elongata AG77 grown on 20 g/L potato dextrose agar with a 3 mm diameter cork borer and separating the surface mycelial mat from the solid growth medium using tweezers. Each well was inoculated with one inoculum. Cultures were incubated at 21° C. for 24 hours to allow metabolic changes to stabilize, and then 100 μL of 3 g/L tetrazolium chloride in water was added to each well. Formazan formation was observed visually at 2 h, 24 h, and 148 h.
Conclusions were based on rate and intensity of formazan formation using the 3-4,5-dimethylthiazol-2-yl)-2,5-diphenyltetrazolium bromide (MTT) assay. “Metabolized” indicates more formazan formation than a control containing no carbon source, and “Toxic” indicates less formazan formation than a control containing no carbon source. “Metabolized” and “Toxic” assignments are mutually exclusive. In this example, a compound may be “Metabolized” or “Toxic,” but not both.

[1] = compound as carbon source, Toxic = less formazan formation than a control containing no carbon source

| Molecule | Toxic | Metabolized (compound as carbon source) | Carbon sources that Mortierella elongata AG77 can metabolize | Toxic [1] |
| --- | --- | --- | --- | --- |
| O=C[C@H](O)[C@@H](O)[C@H](O)[C@H](O)COP(=O)(O)O [D-Glucose-6-Phosphate] | no | yes | can metabolize | – |
| O=C[C@H](O)[C@@H](O)[C@@H](O)[C@H](O)CO [D-Galactose] | no | no | – | – |
| O=C[C@@H](O)[C@H](O[C@@H]1O[C@H](CO)[C@H](O)[C@H](O)[C@H]1O)[C@H](O)CO [3-0-β-D-Galacto-pyranosyl-D-Arabinose] | – | no | – | no |
| O=C(O)Cc1cccc(O)c1 [m-Hydroxy Phenyl Acetic Acid] | – | no | – | no |
| O=C(CO)[C@@H](O)[C@H](O)[C@H](O)COP(=O)(O)O [D-Fructose-6-Phosphate] | – | yes | can metabolize | no |
| O=C[C@H](O)[C@@H](O)[C@H](O)[C@H](O)C(=O)O [D-Glucuronic Acid] | no | yes | can metabolize | – |
| COC1OC(CO)C(O)C(O)C1O [α-Methyl-D-Galactoside] | – | yes | can metabolize | no |
| NCC(=O)N1CCC[C@H]1C(=O)O [Glycyl-L-Proline] (H-Gly-Pro-OH) | no | no | – | – |
| OC[C@@H](O)[C@@H](O)[C@H](O)[C@@H](O)CO [D-Sorbitol] | no | yes | can metabolize | – |
| CC(=O)C(C)=O [2,3-Butanedione] | – | no | – | no |
| O=C[C@@H](O)[C@H](O)[C@@H](O)[C@@H](O)CO [L-Glucose] | no | no | – | – |
| C[N+](C)(C)CC(O)CC(=O)[O-] (racemic) [D,L-Carnitine] | – | yes | can metabolize | no |
| OC[C@@H](O)[C@@H](O)CO [i-Erythritol] | – | no | – | no |
| Mannan | no | – | – | – |
| O=C[C@H](O)[C@@H](O)[C@@H](O)CO [L-Arabinose] | no | no | – | – |
| CC(=O)C(C)O (stereo not shown) [3-Hydroxy 2-Butanone] | – | no | – | no |
| CO[C@@H]1O[C@H](CO)[C@@H](O)[C@H](O)[C@H]1O [β-Methyl-D-Glucoside] | – | no | – | no |
| O=C(O)[C@]1(O)C[C@@H](O)[C@@H](O)[C@H](O)C1 [Quinic Acid] | no | no | – | – |
| O=P(O)(O)O[C@H]1O[C@H](CO)[C@@H](O)[C@H](O)[C@H]1O [D-Glucose-1-Phosphate] | – | yes | can metabolize | – |
| C[C@H](O)[C@@H](O)[C@@H](O)[C@H](O)C=O [L-Fucose] | – | no | – | no |
| COC(=O)[C@@H](C)O [D-Lactic Acid Methyl Ester] | – | yes | can metabolize | no |

| Molecule | Toxic | Metabolized (compound as carbon source) | Carbon sources that Mortierella elongata AG77 can metabolize | Toxic [1] |
| --- | --- | --- | --- | --- |
| O=C(O)/C=C/C(=O)O [Fumaric Acid] | no | yes | can metabolize | – |
| O[C@H]1[C@H](O)[C@@H](O)[C@H](O)[C@@H](O)[C@H]1O [m-Inositol] | – | yes | can metabolize | no |
| CC(=O)N[C@@H](CO)[C@@H](O)[C@H](O)[C@H](O)CO [N-Acetyl-D-Glucosaminitol] | – | no | – | no |
| OC[C@H]1O[C@H](OC[C@H]2O[C@H](OC[C@H]3O[C@H](O[C@]4(CO)O[C@H](CO)[C@@H](O)[C@@H]4O)[C@H](O)[C@@H](O)[C@@H]3O)[C@H](O)[C@@H](O)[C@H]2O)[C@H](O)[C@@H](O)[C@H]1O [Stachyose] | – | no | – | no |
| Gelatin | no | – | – | – |
| O=C(O)c1ccccc1O [2-Hydroxy Benzoic Acid] | – | no | – | – |
| OCC(O)CO [Glycerol] | no | yes | can metabolize | – |
| O=C(O)[C@H](O)[C@@H](O)[C@H](O)[C@H](O)CO [D-Gluconic Acid] | – | no | – | no |
| C=C(CC(=O)O)C(=O)O [Itaconic Acid] | – | no | – | no |
| OC[C@H]1O[C@H](OC[C@H]2O[C@H](O[C@]3(CO)O[C@H](CO)[C@@H](O)[C@@H]3O)[C@H](O)[C@@H](O)[C@@H]2O)[C@H](O)[C@@H](O)[C@H]1O [D-Raffinose] | no | yes | can metabolize | – |
| OC[C@H]1O[C@H](OC[C@H]2OC(O)(CO)[C@@H](O)[C@@H]2O)[C@H](O)[C@@H](O)[C@@H]1O (stereo partly shown) [Palatinose] | – | yes | can metabolize | no |
| O=CC[C@H](O)[C@H](O)CO [2-Deoxy-D-Ribose] | no | no | – | – |
| CCC(=O)O [Propionic Acid] | no | no | – | – |
| CC(O)(CC(=O)O)C(=O)O (stereo not shown) [Citramalic Acid] | no | no | – | – |
| COC1OCC(O)C(O)C1O [β-Methyl-D-Xyloside] | – | no | – | no |
| Glycogen | no | – | – | – |
| CC(=O)CC(=O)O [Acetoacetic Acid] | no | yes | can metabolize | – |
| OC[C@H]1O[C@@H](O[C@@H]2[C@@H](CO)OC(O)(CO)[C@H]2O)[C@H](O)[C@@H](O)[C@H]1O (mixture of isomers) [Lactulose] | no | no | – | – |
| CC(=O)N[C@H]1[C@@H](O)[C@H](O)[C@@H](CO)O[C@H]1O [N-Acetyl-β-D-Mannosamine] | – | yes | can metabolize | no |
| CC(=O)C(=O)O [Pyruvic Acid] | – | no | – | no |
| N[C@@H](C(=O)O)[C@@H](O)[C@H](O)[C@H](O)CO [D-Glucosaminic Acid] | – | yes | can metabolize | no |

| Molecule | Toxic | Metabolized (compound as carbon source) | Carbon sources that Mortierella elongata AG77 can metabolize | Toxic [1] |
| --- | --- | --- | --- | --- |
| Chondroitin Sulfate C | no | – | – | – |
| CCC(=O)C(=O)O [α-Keto-Butyric Acid] | – | no | – | no |
| O=C(O)C(=O)O [Oxalic Acid] | – | no | – | – |
| O=C[C@H](O)[C@@H](O)[C@H](O)CO [D-Xylose] | no | no | – | – |
| OC[C@H]1O[C@H](O[C@H]2[C@H](O)[C@@H](O)[C@H](O)O[C@@H]2CO)[C@H](O)[C@@H](O)[C@@H]1O [Maltose] | – | yes | can metabolize | – |
| CO[C@H]1O[C@H](CO)[C@@H](O)[C@H](O)[C@H]1O [a-Methyl-D-Glucoside] | – | yes | can metabolize | no |
| O=C(CO)[C@@H](O[C@H]1O[C@H](CO)[C@@H](O)[C@H](O)[C@H]1O)[C@H](O)[C@H](O)CO [Turanose] | – | no | – | no |
| O=C(O)CCCO [γ-Hydroxy Butyric Acid] | – | no | – | no |
| CC(=O)N[C@H]1[C@H]([C@H](O)[C@H](O)CO)OC(O)(C(=O)O)C[C@@H]1O (stereo partly shown) [N-Acetyl-Neuraminic Acid] | – | yes | can metabolize | no |
| COC(=O)C(C)=O [Methyl Pyruvate] | – | yes | can metabolize | no |
| O=C(O)CCC(=O)C(=O)O [α-Keto-Glutaric Acid] | – | – | – | no |
| Dextrin | no | – | – | – |
| Tween 80 | – | yes | can metabolize | no |
| O=CC(=O)O [Glyoxylic Acid] | – | no | – | – |
| Gentiobiose | – | no | – | – |
| CCC(C)N (stereo not shown) [Sec-Butylamine] | – | no | – | no |
| OC[C@H]1O[C@@H](O)[C@H](O)[C@H](O)[C@@H]1O [β-D-Allose] | no | no | – | – |
| O=C(O)CC(Br)C(=O)O (stereo not shown) [Bromo Succinic Acid] | – | no | – | no |
| Nc1ncnc2c1ncn2C1CC(O)C(CO)O1 (stereo not shown) [2-Deoxy Adenosine] | – | no | – | no |
| C[C@H](O)[C@H](O)[C@@H](O)[C@@H](O)C=O [L-Rhamnose] | – | no | – | no |
